Results taken from US6395526B1, “DNA polymerase” (Takara Shuzo Co., Ltd., priority 1995, dated 2002).

Experiments:
activated DNA [1] = assay: Optimum KCl and MgCl2 concentrations for DNA polymerase activity; format: biochemical, calf
Protocol: For a DNA polymerase preparation forming a complex of the translation products of ORF3 and ORF4 obtained in Example 3, namely the first DNA polymerase-constituting protein and the second DNA polymerase-constituting protein in a ratio at 1:1, optimum MgCl2 and KCl concentrations were firstly assayed. The DNA polymerase activity was assayed in a reaction system containing 20 mM Tris-HCl, pH 7.7, 2 mM 2-mercaptoethanol, 0.2 mg/ml activated DNA, and 40 μM each of dATP, dGTP, dCTP and dTTP in the presence of 2 mM MgCl2, while the KCl concentration was step by step increased from 0 to 200 mM KCl for each 20 mM increment. […] Next, the DNA polymerase activity was assayed in the same reaction system but in the presence of 60 mM KCl in this time, while the MgCl2 concentration was step by step increased from 0.5 to 25 mM MgCl2 for each 2.5 mM increment, to compare at each concentration.

activated DNA [2] = assay: Optimum pH and temperature of DNA polymerase activity; format: biochemical, calf; details: Tris-HCl in place of potassium phosphate; highest pH level used in the assay
Protocol: However, because the double stranded structure of the activated DNA used as a substrate for activity assay is destructed at higher temperatures, an accurate optimum temperature for the activity of the above enzyme has not been assayed. […] This level of the heat stability allows the use of the above enzyme for PCR method.
The optimum pH was then assayed. […], and preparing a reaction mixture comprising 20 mM potassium phosphate, 15 mM MgCl2, 2 mM 2-mercaptoethanol, 0.2 mg/ml activated DNA, 40 μM each of dATP, dCTP, dGTP and dTTP, and 60 nM [^3H]-dTTP. The results are shown in FIG. 3, wherein the abscissa indicates the pH, and the ordinate indicates the radioactivity incorporated in high-molecular DNA.

λ-DNA = details: reported, enzyme used alone; cited from earlier work

MgCl2 concentration of maximum activity (activated DNA [1]; in the absence of KCl) | KCl concentration of maximum activity (activated DNA [1]; in the presence of 2 mM MgCl2, 20 mM Tris-HCl pH 7.7) | MgCl2 concentration of maximum activity (activated DNA [1]; in the presence of 60 mM KCl) | pH of maximum activity (activated DNA [2]) | Substance | strand length of DNA amplifiable by PCR (λ-DNA)
17.5 mM | 60 mM | 10 mM | 8.02 | DNA Polymerase of the Present Invention: complex of first (ORF3, SEQ ID NO:2) and second (ORF4, SEQ ID NO:4) DNA polymerase-constituting proteins from Pyrococcus furiosus | –
– | – | – | – | Taq DNA Polymerase: Taq DNA polymerase derived from Thermus aquaticus (TaKaRa Taq, manufactured by Takara Shuzo Co., Ltd.) [reference compound] | difficult to amplify a DNA fragment of not less than 10 kbp
